Entries after “also recorded” stand apart in the source; their conditions may differ.
Columns and labels:
mice [1] = assay: Splash test after CVS and ligand microinfusion; type: in vivo; details: naive mice; tested app. 24 h after microinfusion
Description: (§1) AAVs, stereotaxic surgery and microinjection.
(§2) Behavioral tests and CVS. The acute behavioral tests forced swim test, tail suspension test, sucrose preference, splash test and novelty suppressed feeding were performed as described ^13,23. After CVS, no tail suspension test was conducted, as tail suspension is part of the stress-induction protocol. For CVS-groups, caffeine was injected at the last day of CVS (day 21), just prior to the stressor. The CVS-protocol was performed as described ^13. […] Stressors consist of one hour of either, tube restraint, tail suspension or 100 mild electric random […]. If only female experimenters were present, a used male t-shirt was wrapped in clean protective clothing from the animal unit and placed into the experimental room in order to avoid variability due to sex-specific scents of the scientists ^24. All experiments were conducted in the light phase of the light-cycle to allow comparability with previous experiments ^22.

mice [2] = assay: Sucrose preference after CVS and ligand microinfusion; type: in vivo; details: tested app. 24 h after microinfusion
Description: as §1, §2

mice [3] = assay: Tests for depressive-like behavior (forced swim, splash, sucrose preference) 24 h after ligand microinjection; type: in vivo; details: 24 h later; for behavioral effects of CVS: CVS mice, 1 nM NPB or 1 µM CYM50769 into NAc after last stress session; for depressive-like behaviors: naïve mice, 1 nM NPB or 1 µM CYM50769 into NAc
Description: as §1, §2
Next, the rapid effects of Npbwr1 activity were tested on depressive-like behaviors in vivo. To that end, mice underwent CVS and were microinjected with 1 nM NPB and 1 µm CYM50769 after the last session of stress induction. Behavioral tests were conducted 24 h later. […] In contrast, CYM50769 had no effects in naïve mice.

mouse brain = details: intracerebroventricular injection; reference 15; cited from earlier work
Bdnf = Bdnf qPCR after microinfusion of Npbwr1 ligands into the NAc; type: in vivo, mice
Excerpt: (§3) RNA purification and quantification. […] RNA was washed in isopropanol and 75% Ethanol. […] Primer sequences are listed in the supplementary material. Quantitative PCR results were processed as described ^22.
as §1

mice [4] = assay: Forced swim test after CVS and ligand microinfusion; type: in vivo; details: naive mice; 1 nM NPB or 1 µM CYM50769 into NAc; tested app. 24 h later
Description: as §1, §2

Per2 = assay: qPCR of circadian gene Per2 after microinfusion into the NAc; type: in vivo, mice; details: 1nmolar NPB or 1 µmolar CYM50769 into NAc, tissue 24 h later
Excerpt: as §3, §1

Casp3 = assay: qPCR of apoptosis marker Casp3 after microinfusion into the NAc; type: in vivo, mice; details: 1nmolar NPB or 1 µmolar CYM50769 into NAc, tissue 24 h later
Excerpt: as §3, §1

mice [5] = assay: Splash test after CVS and ligand microinfusion; type: in vivo; details: tested app. 24 h after microinfusion
Description: as §2, with “Drugs” for “Behavioral tests”, “chemicals. […]” for “CVS. The acute behavioral tests forced swim test, tail suspension test, sucrose preference, splash test and novelty suppressed feeding were performed as described ^13,23.”, “For CVS-groups, caffeine was injected at the last day of CVS (day 21), just prior to the stressor.” left out

mice [6] = details: acute microinfusion into NAc
Description: Drugs and chemicals. Mice were intraperitoneally (i.p.) injected with 7.5 mg/kg caffeine (#, C0750, Sigma) or saline at an injection volume of 10ml/kg body weight and tested 2 or 24 h later.
In order to address the rapid acting aspects of the Npbwrl-pathway, ligands were microinjected into the NAc that activate (NPB) or inhibit (CYM50769) Npbwr1. While NPB is a natural neurotransmitter, CYM50769 is a synthetic ligand, which has not been tested in vivo. […] Doses of 0.1 µM, 1 µM and 10 µM CYM50769 were injected and mice were scored for health markers for 7 days.

Bcl2 = assay: qPCR of apoptosis marker Bcl2 after microinfusion into the NAc; type: in vivo, mice; details: 1nmolar NPB or 1 µmolar CYM50769 into NAc, tissue 24 h later
Excerpt: as §3, §1

mice [7] = assay: Forced swim test after CVS and ligand microinfusion; type: in vivo; details: microinfused after last stress induction, tested app. 24 h later
Description: as §2, with “Drugs” for “Behavioral tests”, “chemicals. […]” for “CVS. The acute behavioral tests forced swim test, tail suspension test, sucrose preference, splash test and novelty suppressed feeding were performed as described ^13,23.”, “For CVS-groups, caffeine was injected at the last day of CVS (day 21), just prior to the stressor.” left out

mice [8] = details: both sexes; reference 14; cited from earlier work
circadian genes = assay: Read-counts of circadian genes (Per1, Per2, Cry, Bmal) after caffeine; type: in vivo, mice; details: normalized read-counts for Per1, Per2, Cry, 2h after caffeine
Description: (§4) Next-generation RNA-sequencing. An in-house RNA-sequencing analysis pipeline was applied as described ^25. After artificial depletion of ribosomal RNA (rRNA) transcripts from the data set, more than 90% of reads aligned to the reference genome GRCm38, indicating excellent sample quality. Only changes that reached an adjusted P-value < 0.05 and a log2FC 0.5 <> - 0.5 were further considered.
(§5) To determine caffeine-regulate transcripts, next-generation RNA-sequencing 2h after caffeine-injection on NAc of wildtype (WT) and T75A mice were performed. Tissue was collected at four time points along the diurnal clock ^14. As expected, significant changes in circadian markers were observed, which oscillated in the expected manner across the four measured time points (Per1, Per2, Cry1, Bmal), both in WT and T75A-DARPP-32 mutant mice (Figure 3). […] Altered transcripts belonged to a variety of cellular signaling pathways, including synaptic transmission, transcriptional regulation and hormonal signaling (Figure 4C).

Npbwr1 = Npbwr1 expression in NAc after caffeine (RNA-sequencing, qPCR); type: in vivo, mice
Excerpt: as §3, §4, §5

NAc dendritic spines = assay: NAc dendritic spine analysis after CVS and caffeine; type: in vivo, mice
Excerpt: as §1
Dendritic spine analysis. The analysis was based on detecting the AAVs' GFP-fluorophores. Photos of 40 µm PFA-fixed brain sections were taken with a Zeiss LSM 880 confocal microscope using the AiryScan method. Maximum intensity projections were obtained using Zen Black and Zen Blue software and analysed in NeuronStudio (CNIC, Mount Sinai School of Medicine). The total density of spines, proportions of thin, mushroom and stubby spines as well as the cumulative neck-length were determined in Graph Prism. Neck-containing mushroom density refer to the sum of thin and mushroom spine densities.

mice [9] = assay: Escape behavior tests in naive WT and T75A mice 24h after caffeine; type: in vivo; details: naïve WT mice; 7.5 mg/kg caffeine in the dark phase; tested 24h later
Description: as §2

mice [10] = assay: Behavioral tests after chronic variable stress (CVS), 24h after caffeine; type: in vivo; details: female mice after CVS, 7.5 mg/kg caffeine i.p., tested 24h later
Description: as §2

[11] = system: NAc of wildtype (WT) and DARPP-32-T75A mutant mice; assay: RNA-sequencing of NAc 2h after caffeine injection; type: in vivo; details: active and inactive phases
Description: as §4, §5

[12] = 1nmolar NPB or 1 µmolar CYM50769 microinfused into NAc, tissue collected 24 h later

With “NPB: natural agonist of Npbwr1, a natural neurotransmitter; short biologically active peptide (#CSB-MP015971HU-100, Cusabio)” the “Splash test, grooming” value (mice [1]) was “may reduce grooming”, the “Sucrose preference, ratio of sucrose solution consumed” value (mice [2]; naive mice) was “reduce the ratio of sucrose solution consumed” and the “behavioral effects of CVS” value (mice [3]) was “not enhancing the behavioral effects of CVS further”. For the same molecule, the depressive-like behaviors (mice [3]) was “elicited depressive-like behaviors; also recorded: increased depressive-like behaviors; also recorded: mimicked chronic stress effects”, the feeding (mouse brain) was “induced hyperphagia after 2 h, followed by hypophagia” and the Bdnf (Bdnf; [12]) was “decreases Bdnf; also recorded: altered Bdnf-levels; also recorded: opposing effect on Bdnf”. The “Forced swim test, immobility time” value (mice [4]) was “increases immobility time” and the “Per2 (circadian gene)” value (Per2) was “not affected; also recorded: did not alter”.
In the case of `COc1ccc(Oc2c(Cl)cnn(C3c4ccccc4-c4ccccc43)c2=O)cc1` [CYM50769], the “Sucrose preference, CVS-effects” value (mice [2]) is reported as “rescues CVS-effects”, the “Casp3 (apoptosis marker)” value (Casp3) is reported as “does not alter; also recorded: Neither NPB nor CYM50769 affected” and the “behavioral effects of CVS” value (mice [3]) is reported as “rescued CVS-effects; also recorded: blocked those”. For the same molecule, the “behavioral effects of CVS” value (mice [3]; listed as CYM5069) was “reversed effects of chronic stress on behavior”, the depressive-like behaviors (mice [3]) was “no effects” and the Bdnf (Bdnf; [12]) was “increases Bdnf; also recorded: altered Bdnf-levels”. The Bdnf (Bdnf; 1 µmolar CYM50769 microinfused into NAc, single dose, tissue collected 7 days later) was “persists at the 7 day time point”, the Bdnf (Bdnf; 1 µmolar CYM50769 microinfused into NAc, single dose, tissue collected 7 days later, listed as CYM5069) was “altered Bdnf levels starting at 24h for up to 7 days” and the “Splash test, CVS-effects” value (mice [5]) was “blocks CVS-effects”. For the same molecule, the “Per2 (circadian gene)” value (Per2) was “not affected; also recorded: did not alter”, the “selectivity and tolerability of an acute dose” value (mice [6]) was “selective and well tolerated” and the “Bcl2 (apoptosis marker)” value (Bcl2) was “No effect; also recorded: Neither NPB nor CYM50769 affected”. For the same molecule, the “Forced swim test, CVS-effects” value (mice [7]) was “blocks CVS-effects”.
For `Cn1c(=O)c2c(ncn2C)n(C)c1=O` [caffeine], the mood-elevating effects (mice [8]) is given as “only occurred in the active (dark) phase”, the “amplitude of circadian oscillations” value (circadian genes) is given as “may slightly flatten the amplitude” and the Npbwr1 levels (Npbwr1; 24h after caffeine injection, dark phase) is given as “decreased; also recorded: reduced”. The Npbwr1 expression (Npbwr1; WT mice, 2h after caffeine injection, end of the dark phase) was “increased”, the “CVS-induced changes in NAc dendritic spines” value (NAc dendritic spines; females, 24h after caffeine injection) was “reversed by caffeine back to naive levels” and the Cumulative head diameter (NAc dendritic spines; females, CVS, 24h after caffeine) was “reversed”. The CVS-induced spine changes (NAc dendritic spines; males, CVS, caffeine) was “partially reversed”, the Cumulative head diameter (NAc dendritic spines; males, CVS, caffeine) was “reversed” and the Escape behaviors (mice [9]) was “altered”. The stress-induced behavioral changes (mice [10]) was “reversed; also recorded: improved stress-induced behavioral changes” and the caffeine-induced transcriptional changes [11] was “biggest effect of caffeine occurs in WT in the active phase; also recorded: occurred in WT in the active (dark) phase”.

Reference: patent EP4512403A1, “NEUROPEPTIDE B AND W-RECEPTOR AS A TARGET FOR TREATING MOOD DISORDERS AND/OR CHRONIC STRESS” (Friedrich-Schiller-Universität Jena, priority 2023, dated 2025)
